These results are taken from patent US20090036400A1, “Pharmaceutical Preparations for Treating the Consequences of Alcohol Abuse, Hepatitis, Pancreatitis, Alzheimer's Disease, Parkinson's Disease, Diabetes, Toxic Kidney Disease, Reperfusion Damage, Arteriosclerosis, and as an Antidote Against Environmental Toxins and Medicinal Intoxication” (priority 2004, published 2009).

Counter-ions that a name gives are not always drawn.

The target in the series is T1, cytochrome P450 2E1 (Rattus norvegicus, UniProt P05182).
T1 construct: from tissue
T1 sequence (P05182 whole entry): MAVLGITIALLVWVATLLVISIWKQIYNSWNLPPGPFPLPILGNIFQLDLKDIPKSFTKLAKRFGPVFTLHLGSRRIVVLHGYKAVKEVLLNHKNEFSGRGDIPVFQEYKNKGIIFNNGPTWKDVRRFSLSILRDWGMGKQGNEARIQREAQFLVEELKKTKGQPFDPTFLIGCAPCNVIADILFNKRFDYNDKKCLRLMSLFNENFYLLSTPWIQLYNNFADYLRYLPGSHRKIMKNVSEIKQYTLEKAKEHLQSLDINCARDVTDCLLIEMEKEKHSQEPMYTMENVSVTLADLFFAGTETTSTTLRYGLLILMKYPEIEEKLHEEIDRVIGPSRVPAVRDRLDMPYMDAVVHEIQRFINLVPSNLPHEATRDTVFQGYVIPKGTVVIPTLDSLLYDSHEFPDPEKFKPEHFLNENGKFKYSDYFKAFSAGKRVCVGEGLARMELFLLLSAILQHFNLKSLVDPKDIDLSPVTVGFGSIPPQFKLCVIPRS
As to the kind of experiment: p-nitrophenol-hydroxylase activity determination (inhibiting constants). The class given is biochemical. To be noted: microsomal fraction of acetone-induced Sprague-Dawley rats; substrate p-nitrophenol; read-out: Ki (inhibiting constant). The method, then: 8 male Sprague-Dawley rats were administered 5% acetone (v-v) in drinking water for 7 days, as described by M. H. Wang et al. in Arch. Biochem. Biophys. […] The preparation of the microsomal fraction is carried out based on the method published by Wang, P., Mason, P. S., Günderlich, F. G., in Arch. Biochem. Biophys.
p-Nitrophenol applies as a specific substrate for cytochrome P450 2E1.
For `CCCCCCCCCCCCCCCCC(N)COP(=O)([O-])OCC[N+](C)(C)C` (racemic) [rac-1-O-phosphocholine-2-amino-octadecane-hydrochloride], the Ki amounted to 2250 nM.
As to `CCCCCCCCCCCCOP(=O)([O-])OCC[N+](C)(C)C` [Dodecylphosphorylcholine], the Ki was 450 nM.
For the compound `CCCCCCCCCCCCCCCCOP(=O)([O-])OCC[N+](C)(C)C` [Hexadecylphosphocholine, reference compound], the Ki is 600 nM.

By Ki is commonly meant a dissociation constant, usually derived from enzyme kinetics or from competition with a known ligand.
